# Test results from ChEMBL document CHEMBL3507680, “University of Dundee, Gates Library screen for HepG2 cell viability”.
# Assay: Human HepG2 cell viability assay in 384 well format
# Format: toxicity, cell-based
# Parameters: dose 125 nL, time 70.5 hour; concentration not given beside the values
# Conditions: HepG2 cells, read-out: Inhibition
structure (smiles),measurement,value
COCC1CN(Cc2ccncc2)Cc2nn(CC3CC3)cc21 (centres undefined),cytotoxicity at 70.5 h,-12.8%
Nc1nccnc1CC1CCCN(Cc2cccc3[nH]ccc23)C1 (centres undefined),cytotoxicity at 70.5 h,0.122%
Cc1nnc(C(NS(=O)(=O)c2cc(F)c(C)cc2F)C(C)C)[nH]1 (centres undefined),cytotoxicity at 70.5 h,-5.12%
O=C(CC1Cn2ncnc2NC1=O)Nc1ccccc1 (centres undefined),cytotoxicity at 70.5 h,-8.16%
CCN(CC)CC(=O)N1CCN(c2nc(C)cc(OC)n2)CC1,cytotoxicity at 70.5 h,-0.607%
CN(Cc1cn2c(n1)CN(c1ncc(F)cn1)CC2)Cc1ccco1,cytotoxicity at 70.5 h,-8.98%
CN1CCCN(CC(CC(=O)Nc2ccc(Cl)cc2)C(=O)O)CC1 (centres undefined),cytotoxicity at 70.5 h,-6.04%
c1cnc(NCc2ncn3c2CN(Cc2cccnc2)CCC3)nc1,cytotoxicity at 70.5 h,-2.74%
COCC(=O)N1CCC(c2cc3ncccc3c(O)n2)CC1,cytotoxicity at 70.5 h,-7.25%
CSCC[C@@H](CO)n1ccnc1-c1ccc(C)o1,cytotoxicity at 70.5 h,0.0887%
Cn1cnnc1-c1cncc(NCc2cccc3c2OCO3)c1,cytotoxicity at 70.5 h,-1.67%
CC(NCc1cccc(Cl)c1)c1ccc(OCC(=O)NC2CC2)cc1 (centres undefined),cytotoxicity at 70.5 h,-4.37%
COc1c(C)cnc(CN(C)C2CCOC3(CCOCC3)C2)c1C (centres undefined),cytotoxicity at 70.5 h,-19.1%
CC(C)(C)NC(=O)CN1CCCN(Cc2cc(C#N)ccc2F)CC1,cytotoxicity at 70.5 h,4.54%
O=C1COC2(CCN(C(=O)c3ccco3)CC2)CN1Cc1ccccn1,cytotoxicity at 70.5 h,-1.65%
O=C(CCc1ccsc1)N1CCCC(N2CCNC2=O)C1 (centres undefined),cytotoxicity at 70.5 h,-10.5%
CNS(=O)(=O)CCn1cc(-c2cc3c(cc2OC)CCC3)nn1,cytotoxicity at 70.5 h,-7.97%
CC(c1ccc(-n2cncn2)cc1)N(C)Cc1ccccn1 (centres undefined),cytotoxicity at 70.5 h,-7.98%
Cc1ocnc1C(=O)N1CCN(CCOc2ccccc2)CC1,cytotoxicity at 70.5 h,-10.4%
CC(NC(=O)CNc1cc2c(cc1Cl)OCCO2)c1ccco1 (centres undefined),cytotoxicity at 70.5 h,-8.18%
CS(=O)(=O)N1CCCC(Cc2cnc(Br)cn2)C1 (centres undefined),cytotoxicity at 70.5 h,22.6%
O=C(NCC1CCCN1Cc1ccccc1)NCC1(O)CCC1 (centres undefined),cytotoxicity at 70.5 h,31.1%
Cc1nncn1CCNC(=O)C1SCCc2sccc21 (centres undefined),cytotoxicity at 70.5 h,-3.34%
O=C(CCc1nc(-c2ccccn2)no1)N1CCCC1c1ccsc1 (centres undefined),cytotoxicity at 70.5 h,-10.3%
Cc1ccc(-c2noc(CCC3CCN(C)CC3)n2)nn1,cytotoxicity at 70.5 h,-5.24%
Cc1ccncc1C(=O)N1C[C@H]2CN(CC3CCC3)C[C@@]2(C(=O)O)C1,cytotoxicity at 70.5 h,-8.6%
CN1CCC/C1=N\S(=O)(=O)c1ccc(NC(=O)c2cccs2)cc1,cytotoxicity at 70.5 h,-2.28%
Cc1n[nH]c(C)c1NC(=O)CN1CCCC1c1noc(C(C)C)n1 (centres undefined),cytotoxicity at 70.5 h,15.2%
Cc1nc(-c2ccc(Cl)s2)sc1C(=O)O,cytotoxicity at 70.5 h,1.47%
CN(Cc1ccccc1)C(=O)c1cc2c(c(S(N)(=O)=O)c1)CCC2,cytotoxicity at 70.5 h,30.7%
O=C(COC1CCCC1)NCc1ccc(O)c(F)c1,cytotoxicity at 70.5 h,-3.82%
F[C@@H]1CN(CC2CC2)C[C@@H]1OCc1nc2ccc(C(F)(F)F)cc2[nH]1,cytotoxicity at 70.5 h,0.533%
CCOCCC(=O)N1CCCN(Cc2csc(CC)n2)CC1,cytotoxicity at 70.5 h,-0.403%
Cc1cn(CC(=O)NC2CCN(S(C)(=O)=O)CC2)c2ccccc12,cytotoxicity at 70.5 h,-4.04%
Cc1cc(C)n(C2CCCN(C(=O)Cc3ccc(C#N)cc3)C2)n1 (centres undefined),cytotoxicity at 70.5 h,-14.4%
CC(=O)Nc1ccc(F)c(S(=O)(=O)NC(C)(C)C)c1,cytotoxicity at 70.5 h,-6.2%
NC(=O)CSc1nnc2[nH]c(=O)c3c(n12)CCCC3,cytotoxicity at 70.5 h,-12.6%
CCN1CC(c2ccccc2)CC2(CCN(Cc3ncc[nH]3)CC2)C1 (centres undefined),cytotoxicity at 70.5 h,-9.77%
N#Cc1ccc(N2CCC3(CCC(=O)N3Cc3cccnc3)CC2)nc1,cytotoxicity at 70.5 h,-5.74%
CCC1CN(c2nnc(C)c(C)c2C#N)CCO1 (centres undefined),cytotoxicity at 70.5 h,8.71%
Cc1nc(NC(=O)CN2CCOC(Cn3cccn3)C2)sc1C (centres undefined),cytotoxicity at 70.5 h,-7.06%
COCC1CN(C(=O)C2=CCCCC2)Cc2cnn(CC3CC3)c21 (centres undefined),cytotoxicity at 70.5 h,-2.03%
CN(Cc1n[nH]c2c1CCCC2)c1cc(N2CCOCC2)nc(N)n1,cytotoxicity at 70.5 h,-8.11%
COc1ccc(S(=O)(=O)NCC(c2cccn2C)N(C)C)cc1F (centres undefined),cytotoxicity at 70.5 h,-8.8%
CCNC(=O)[C@@H]1CCCN1C(=O)c1cccc(CCC(C)(C)O)c1,cytotoxicity at 70.5 h,-7.73%
CCN(C(=O)NCCc1cccc(F)c1F)C(C)CS(C)(=O)=O (centres undefined),cytotoxicity at 70.5 h,-5.85%
c1cnc(-c2noc(C3CN(Cc4ccsc4)C3)n2)cn1,cytotoxicity at 70.5 h,-8.37%
CC(=O)Nc1ccc2c(c1)C1(CCOCC1)C(=O)N2c1ccsc1,cytotoxicity at 70.5 h,-9.04%
Cc1nn(C)c(Cl)c1S(=O)(=O)N(C)C,cytotoxicity at 70.5 h,1.44%
CC(C)c1cc(CNC(=O)N2CCC(Cc3cnn(C)c3)C2)on1 (centres undefined),cytotoxicity at 70.5 h,-11.4%
CCN1CCN(CCCNC(=O)NC(C)c2nncn2C)CC1 (centres undefined),cytotoxicity at 70.5 h,2.39%
COc1c(CNCc2ccc3c(c2)OCCO3)c(C(C)C)nn1C,cytotoxicity at 70.5 h,-6.06%
Cc1cncnc1C1CCN(CC2CC2)CC1,cytotoxicity at 70.5 h,19.8%
Cc1ccc(-c2nc(CC(=O)NCC3CCCN(C(C)C)C3)cs2)o1 (centres undefined),cytotoxicity at 70.5 h,11.1%
CCNC(=O)N(Cc1ccoc1)C1CCCCC1,cytotoxicity at 70.5 h,-5.6%
Cc1cnn(C2CCCN(C(=O)c3cc(C4CC4)on3)C2)c1 (centres undefined),cytotoxicity at 70.5 h,-4.84%
c1cncc(COCc2nnc3n2CCN(Cc2ccsc2)C3)c1,cytotoxicity at 70.5 h,-2.47%
Cc1ccc(CC(=O)N2CCOCC2c2c(C)n[nH]c2C)cc1 (centres undefined),cytotoxicity at 70.5 h,-21.7%
CCc1noc(C(C)N2CCN(Cc3noc(C4CC4)n3)CC2)n1 (centres undefined),cytotoxicity at 70.5 h,-8.62%
CCN(C)Cc1cccc(CNC(=O)CSCc2ccccn2)c1,cytotoxicity at 70.5 h,-15.2%
Cc1nc(C)n(CC2CCCN2Cc2cn3ccccc3c2C#N)n1 (centres undefined),cytotoxicity at 70.5 h,-6.14%
CCN(CCc1nc2cc(C)ccc2[nH]1)C(=O)[C@@H](N)CCSC,cytotoxicity at 70.5 h,-4.38%
O=C(NCc1cc[nH]n1)NCC(c1ccccc1)N1CCOCC1 (centres undefined),cytotoxicity at 70.5 h,8.77%
O=C(c1cccnc1)N1CCC2(CC1)CN(c1ccccn1)CCO2,cytotoxicity at 70.5 h,-13.7%
COc1ncccc1CNc1snc(Cl)c1C#N,cytotoxicity at 70.5 h,-103%
O=C(Cn1cnc2cc3c(cc21)OCCCO3)NCCc1ccccc1,cytotoxicity at 70.5 h,0.395%
O=C(c1c[nH]cn1)N1CCC(F)(F)C2(CCN(c3cccc(F)c3)C2)C1 (centres undefined),cytotoxicity at 70.5 h,-7.39%
COc1cc(CSc2nnc(C)n2CC(N)=O)ccc1SC,cytotoxicity at 70.5 h,-118%
O=C(COCc1ccccc1Cl)N1CCN(c2ccc(Br)cn2)CC1,cytotoxicity at 70.5 h,-4.89%
COCCN(C)C(=O)Nc1ccc2c(ccn2CCOC)c1,cytotoxicity at 70.5 h,32.1%
NC(=O)[C@H]1CCCN(c2nccc(-c3ccncc3)n2)C1,cytotoxicity at 70.5 h,-0.804%
COc1ccccc1CC(=O)N1CCC(NCc2ccccn2)CC1,cytotoxicity at 70.5 h,21%
Cn1cc(-c2csc(N3CCN(C(=O)OC(C)(C)C)CC3)n2)cn1,cytotoxicity at 70.5 h,-2.04%
CN(C)Cc1nnc2n1CCN(Cc1cccnc1)C2,cytotoxicity at 70.5 h,-2.36%
COc1ncccc1C(=O)N1CC[C@H]2C[C@H](c3noc(C)n3)O[C@@H]2C1,cytotoxicity at 70.5 h,51.3%
Cc1cccc(C)c1OC1CN(Cc2cnn(C)c2)C1,cytotoxicity at 70.5 h,0.587%
CCn1ncc2c1C(COCC1CC1)N(Cc1nccs1)CC2 (centres undefined),cytotoxicity at 70.5 h,-0.956%
O=S1(=O)C[C@@H]2[C@H](C1)N(Cc1cccc(O)c1)CCN2CC1CC1,cytotoxicity at 70.5 h,-5.99%
O=c1ccc2c(n1CCN1CCCC1)CCN(Cc1ccoc1)CC2,cytotoxicity at 70.5 h,-5.75%
COc1ccnc(N2CCN(C(=O)Cc3ccc(C)s3)CC2)n1,cytotoxicity at 70.5 h,-5.58%
c1ccc(CN2Cc3ccnn3CC(COCc3cccnc3)C2)nc1 (centres undefined),cytotoxicity at 70.5 h,-9.03%
CCC[C@@H]1CN(Cc2ccccc2C#N)C[C@H]1NC(C)=O,cytotoxicity at 70.5 h,-1.98%
CC(=O)Cn1nc(-c2ccccc2F)ccc1=O,cytotoxicity at 70.5 h,-3.88%
Cc1ccc2c(n1)N(Cc1cccnc1)CCN(Cc1cnn(C)c1)C2,cytotoxicity at 70.5 h,-2.59%
Cc1nc(C)c(C(=O)Nc2cnn(CC(=O)NC3CCCC3)c2)s1,cytotoxicity at 70.5 h,14.1%
CN(C)Cc1cccc(-c2cccnc2C(=O)NCc2ccco2)c1,cytotoxicity at 70.5 h,-4.14%
N#Cc1ccc(C(=O)NCCCNc2ccc(C(F)(F)F)cn2)cc1,cytotoxicity at 70.5 h,0.522%
O=C(NC1CC(=O)N(C2CC2)C1)c1ccc(Cl)s1 (centres undefined),cytotoxicity at 70.5 h,-8.35%
Cn1ccnc1SCC(=O)NCc1ccc2c(c1)CCC(=O)N2,cytotoxicity at 70.5 h,2.79%
Cc1ncc(CN2CCN(c3ccc4nncn4n3)C(C)C2)s1 (centres undefined),cytotoxicity at 70.5 h,-11.1%
CN(C)[C@@H]1CCN(C(=O)c2ccccn2)[C@H]1Cc1cnn(C)c1,cytotoxicity at 70.5 h,-5.7%
CCn1c(CN2CCCC2)nnc1C1CCN(Cc2cc(C)no2)CC1,cytotoxicity at 70.5 h,-6.8%
Cc1cccc(CN2C(=O)C[C@H]3[C@@H]2CCN3Cc2cccs2)n1,cytotoxicity at 70.5 h,0.507%
CC(C)NC(=O)c1nnn(-c2ccc(F)cc2)c1C1CC1,cytotoxicity at 70.5 h,-4.05%
Cc1ncc(-c2ccnc(N[C@@H](C)CO)n2)c(C2CCCCC2)n1,cytotoxicity at 70.5 h,24.8%
O=C(O)c1ccnc(-c2ccnc(COc3ccccc3Cl)n2)c1,cytotoxicity at 70.5 h,-7.03%
c1ccc(OCC2C[C@@H]3[C@@H](C2)OCCN3CC2CCOCC2)nc1 (some centres undefined),cytotoxicity at 70.5 h,-0.766%
COc1cc(CNCC(O)c2ccc(F)cc2F)cc2c1OCO2 (centres undefined),cytotoxicity at 70.5 h,4.59%
O=C1CCCN1c1cccc(N2CCC(NCCc3cscn3)CC2)c1,cytotoxicity at 70.5 h,-4.03%
Cc1ccn(CCNc2ncnc3c2CCN(S(C)(=O)=O)CC3)n1,cytotoxicity at 70.5 h,1.8%
O=C1C[C@H]2[C@H](CCN2C(=O)c2cc[nH]n2)N1Cc1cccnc1,cytotoxicity at 70.5 h,-9.27%
Cc1cc(CN(C)C(C(=O)O)c2cccc(C(F)(F)F)c2)on1 (centres undefined),cytotoxicity at 70.5 h,-7.95%
CN(Cc1cc(F)ccc1F)CC(C)(CO)CO,cytotoxicity at 70.5 h,-5.92%
Cc1cnn(CC2CCCN2Cc2nnc(-c3ccccc3)o2)c1 (centres undefined),cytotoxicity at 70.5 h,-4.64%
Cc1nc(CN2CCn3cc(CNC(=O)C4CCC4)nc3C2)cs1,cytotoxicity at 70.5 h,14%
OC1(CNCCc2csc(-c3ccncc3)n2)CCCNC1 (centres undefined),cytotoxicity at 70.5 h,-5.37%
O=C(NCC(O)c1ccc(F)c(F)c1)c1cccnc1O (centres undefined),cytotoxicity at 70.5 h,-3.92%
Cc1csc(CNc2ccc(-c3nc(C4CC4)no3)cn2)n1,cytotoxicity at 70.5 h,-5.44%
CN(C)C(=O)CCC1CCCN(Cc2cccc(-c3ccccn3)c2)C1 (centres undefined),cytotoxicity at 70.5 h,12.2%
Cc1cnc(CN(C)C2CCN(CCc3ccccn3)CC2)cn1,cytotoxicity at 70.5 h,14.7%
Cc1ccccc1CN1C[C@@H]2OCC(=O)N(CC(N)=O)[C@@H]2C1,cytotoxicity at 70.5 h,-0.694%
CCN1CCC(NC(=O)Cn2cc(C)c3ccccc32)CC1,cytotoxicity at 70.5 h,8.33%
O=C(c1ccc(-c2ccccc2)[nH]c1=O)N1CCN(C2CC2)CC1,cytotoxicity at 70.5 h,-8.84%
CCN1CCN(C(=O)NCc2cc[nH]n2)CC1,cytotoxicity at 70.5 h,-8.83%
